Experimental findings from PubChem BioAssay (NCI) are described below.

Common to all, as to assay: DTP human tumour cell line panel, 48 h
The test system of assay [1] is SW-620 colon.
In assay [2] the test system is SK-OV-3 ovarian.
Assay [3] deals with SR leukemia.
The test system of assay [4] is IGROV1 ovarian.
In assay [5] the test system is SF-295 CNS.
The test system of assay [6] is MALME-3M melanoma.
Assay [7] concerns PC-3 prostate.
In assay [8] the test system is SF-268 CNS.
Assay [9] deals with SN12C renal.
Assay [10] relates to NCI-H522 lung.

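In this assay, cells in 96-well plates receive the compound at five concentrations for 48 hours. Endpoints are linearly interpolated between the surrounding concentrations. GI50 is the concentration that inhibits growth by half. TGI: total growth inhibition.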 A value given as a limit tells only on which side of the number the result lay.

In general, GI50 refers to the concentration that inhibits growth by half. A word on the TGI: it is the concentration giving total growth inhibition. High values mean lower sensitivity of the cells, low ones greater sensitivity of the cells. Turning to `O=P(O)(O)OCC1OC(n2cnc3c(NCc4ccccc4)ncnc32)C(O)C1O` (stereo not drawn), the GI50 in [1] was 1.33 µM; in assay [2] it was 2.73 µM; in [3], 3.34 µM; in assay [4] it was 3.52 µM; in assay [5], 3.09 µM; in [6], 6.64 µM. Further, the GI50 is 1.2 µM in assay [7], 2.03 µM in assay [8], 0.509 µM in [9] and 2.16 µM in [10]. Moreover, the TGI is more than 73.9 µM in [1]; 11.1 µM in assay [2]; more than 64.2 µM in assay [3]; 23 µM in assay [4]; 21.8 µM in [5]; more than 100 µM in assay [6]. The concentration for total growth inhibition (TGI) was more than 36.2 µM in assay [7], more than 100 µM in assay [8], more than 100 µM in assay [9] and 11.2 µM in assay [10].
Consider `O=C(O)c1ccc(SSc2ccc(C(=O)O)cn2)nc1`, for which the TGI in [1], in assay [2], in assay [3], in assay [4], in assay [5] and in assay [6] was more than 100 µM in each case. Also, the total growth inhibition concentration (TGI) in assay [7], in assay [8], in [9] and in assay [10] was more than 100 µM each time.
Turning to `CC(C)(C)OC(=O)Nc1ccc2c(c1)C(NC(=O)Nc1cccc(C#N)c1)CC(C)(C)O2` (stereo not drawn), the GI50 in [1] is 3.61 µM; in [2], 8.68 µM; in assay [3], 2.18 µM; in assay [4] it was 4.44 µM; in [5], 1.94 µM; in [6] it was 3.69 µM. Also, the GI50 was 0.785 µM in assay [7], 5.1 µM in assay [8], 4.57 µM in assay [9] and 3.61 µM in [10]. For the same compound, the TGI in [1] is more than 100 µM; in [2], more than 100 µM; in assay [3] it was 30 µM; in [4], more than 100 µM; in assay [5], more than 37.1 µM; in [6], more than 68 µM. The TGI was more than 35.3 µM in assay [7], more than 100 µM in [8], more than 100 µM in assay [9] and 54.7 µM in assay [10].
As for `O=c1/c(=N\Nc2ccccc2)c2cccc3ccc4cccc1c4c32`, the TGI in assay [1], in assay [2], in assay [3], in assay [4], in [5] and in assay [6] was more than 100 µM in each case. Besides, the TGI in [7], in assay [8], in [9] and in assay [10] was more than 100 µM each time.
Regarding `CCOC(=O)/C=C/c1cccc(F)c1`, the TGI in assay [1], in assay [3], in assay [4], in assay [6], in assay [7] and in [8] was more than 100 µM in each case. Moreover, the TGI in assay [9] and in assay [10] was more than 100 µM each time.
Regarding `Nc1cccc2c1C(=O)c1cccc(NC(=O)c3ccccc3)c1C2=O`, the 50% growth inhibitory concentration (GI50) in [1] was 0.267 µM; in assay [2], 0.425 µM; in [3] it was 0.165 µM; in assay [4] it was 0.503 µM; in [5], 0.166 µM; in [6] it was 0.242 µM. Also, the 50% growth inhibitory concentration (GI50) in [7] is 0.374 µM; in assay [8], 0.576 µM; in assay [9], 0.723 µM; in assay [10] it was 0.0655 µM. Also, the TGI was more than 100 µM in [1]; 9.24 µM in assay [2]; more than 100 µM in assay [3]; more than 81.4 µM in assay [4]; 1.35 µM in assay [5]; 7.09 µM in assay [6]. Further, the total growth inhibition concentration (TGI) in assay [7] was more than 100 µM; in [8], more than 100 µM; in assay [9], more than 80.6 µM; in [10], 0.618 µM.
In the case of `CC1=NOC(=O)/C1=C/c1ccc2c(c1)OCO2`, the total growth inhibition concentration (TGI) in [1] was 60.9 µM; in assay [2], more than 100 µM; in assay [3], 52.5 µM; in assay [4], 78.5 µM; in assay [5], 69.6 µM; in assay [6], more than 100 µM. The TGI in assay [7] was 48.5 µM; in assay [8] it was more than 100 µM; in [9], 59.4 µM; in [10], more than 100 µM.
As for `COc1ccc2nc3cc(Cl)ccc3c(Nc3cc(CN4CCCC4)c(O)c(CN4CCCC4)c3)c2n1`, the GI50 in [1] is 0.629 µM; in assay [2], 2.92 µM; in assay [3] it was 0.902 µM; in assay [4], 2.51 µM; in assay [5] it was 2 µM; in assay [6], 1.83 µM. In addition, the GI50 in assay [7] is 1.53 µM; in assay [8] it was 1.28 µM; in assay [9], 1.35 µM; in [10], 1.47 µM. Also, the TGI in assay [1] is 4.95 µM; in assay [2], 15.5 µM; in assay [3], 3.14 µM; in [4], 13.6 µM; in assay [5], 6.51 µM; in [6], 3.32 µM. Also, the total growth inhibition concentration (TGI) in assay [7] came to 6.52 µM; in [8] it was 3.55 µM; in [9], 10.8 µM; in assay [10], 3.14 µM.
For `Cc1cc(O)c(-c2ccc([C@@H](C)CN(C)C)cc2)c2c1[nH]c(=O)c1sccc12`, the GI50 in [1] was 0.556 µM; in [2] it was 0.332 µM; in assay [3], 0.363 µM; in assay [4], 0.534 µM; in assay [5], 0.73 µM; in assay [6], 1.53 µM. Moreover, the GI50 is 0.667 µM in assay [7], 1.14 µM in assay [8], 0.627 µM in assay [9] and 0.436 µM in assay [10]. For the same compound, the total growth inhibition concentration (TGI) in [1] was more than 61.9 µM; in assay [2] it was 3.65 µM; in assay [3], 26.6 µM; in [4] it was 5.16 µM; in assay [5] it was 6.07 µM; in [6] it was 4.59 µM. The TGI in assay [7] came to 18 µM; in [8], 14.8 µM; in assay [9], 20.7 µM; in assay [10], 2.9 µM.
